In brackets after ≈: the same amount, converted by molar mass.
What was measured:
C. freundii [1] = assay: MIC of carbapenem by Etest (Example 2); type: cell-based, Citrobacter freundii
Protocol: (§1) All strains had previously been characterized for their β-lactamase content at the molecular level. Minimum inhibitory concentration of carbapenem were determined using the Etest® (AB bioMérieux, Solna, Sweden) and results were recorded according to US guidelines (CLSI), as updated in 2011.

P. rettgeri [2] = assay: MIC of carbapenem by Etest (Example 2); type: cell-based, Proteus rettgeri
Protocol: as §1

Salmonella spp. = assay: MIC of carbapenem by Etest (Example 2); type: cell-based; details: Salmonella spp. KPC-2, n=1
Protocol: as §1

E. sakazaki = assay: MIC of carbapenem by Etest (Example 2); type: cell-based; details: ESBL + decreased membrane permeability; E. sakazaki CTX-M-15, n=1
Protocol: as §1

K. ozonae = assay: MIC of carbapenem by Etest (Example 2); type: cell-based; details: K. ozonae KPC-3, n=1
Protocol: as §1

E. aerogenes = assay: MIC of carbapenem by Etest (Example 2); type: cell-based, Enterobacter aerogenes
Protocol: as §1

P. mirabilis [3] = assay: MIC of carbapenem by Etest (Example 2); type: cell-based, Proteus mirabilis; details: Plasmid mediated AmpC or chromosomal AmpC + decreased membrane permeability; P. mirabilis ACC-1, n=1
Protocol: as §1

S. marcescens = assay: MIC of carbapenem by Etest (Example 2); type: cell-based, Serratia marcescens
Protocol: as §1

E. coli = assay: MIC of carbapenem by Etest (Example 2); type: cell-based, Escherichia coli
Protocol: as §1

P. rettgeri [4] = assay: MIC by Etest on Mueller-Hinton agar (Example 1); type: cell-based, Proteus rettgeri; details: Providencia rettgeri; P. rettgeri RAP (9); OXA-181 + OXA-1
Protocol: (§2) Prior to performing the method of the invention, susceptibility testings were performed by determining Minimum Inhibitory Concentration (MIC) values by the Etest® (AB bioMérieux; Solna, Sweden) on Mueller-Hinton agar plates at 37° C. and results of susceptibility testing were recorded according to the Clinical and Laboratory Standards Institute (CLSI) guidelines as modified in June 2010 (18). The breakpoints for imipenem are S≦1 μg/ml (susceptibility) and R≧4 μg/ml (resistant). As for those for ertapenem, they are S≦0.25 μg/ml and R≧1 μg/ml (see Tables 1 and 2).

K. pneumoniae [5] = assay: MIC by Etest on Mueller-Hinton agar (Example 1); type: cell-based; details: Klebsiella pneumoniae
Protocol: as §2

P. stuartii = assay: MIC by Etest on Mueller-Hinton agar (Example 1); type: cell-based; details: Providencia stuartii, NDM-1 + OXA-1 + CMY-6
Protocol: as §2

P. mirabilis [6] = assay: MIC by Etest on Mueller-Hinton agar (Example 1); type: cell-based; details: Proteus mirabilis, plasmid mediated cephalosporinase ACC-1
Protocol: as §2

E. cloacae [7] = assay: MIC by Etest on Mueller-Hinton agar (Example 1); type: cell-based; details: Enterobacter cloacae
Protocol: as §2

C. freundii [8] = assay: MIC by Etest on Mueller-Hinton agar (Example 1); type: cell-based; details: Citrobacter freundii; C. freundii STE (13); NDM-1 + OXA-1 + OXA-9 + OXA-10 + CTX-M-15 + TEM-1
Protocol: as §2

M. morganii = assay: MIC of carbapenem by Etest (Example 2); type: cell-based, Morganella morganii; details: Plasmid mediated AmpC or chromosomal AmpC + decreased membrane permeability; M. morganii Overexpressed cephalosporinase, n=2
Protocol: as §1

E. asburiae = assay: MIC of carbapenem by Etest (Example 2); type: cell-based, Enterobacter asburiae; details: E. asburiae IMI-2, n=1
Protocol: as §1

E. cloacae [9] = assay: MIC of carbapenem by Etest (Example 2); type: cell-based, Enterobacter cloacae
Protocol: as §1

K. pneumoniae [10] = assay: MIC of carbapenem by Etest (Example 2); type: cell-based, Klebsiella pneumoniae
Protocol: as §1

C[C@@H](O)[C@H]1C(=O)N2C(C(=O)O)=C(SCCN=CN)C[C@H]12 [IMP, imipenem]
MICs range (C. freundii [1]; C. freundii NDM-1, n=1): >32 mg/L
MICs range (C. freundii [1]; ESBL + decreased membrane permeability, C. freundii TEM-3, n=1): 1 mg/L
MICs range (P. rettgeri [2]; P. rettgeri NDM-1, n=1): 3 mg/L
MICs range (P. rettgeri [2]; P. rettgeri OXA-181, n=1): 8 mg/L
MICs range (Salmonella spp.): 4 mg/L
MICs range (E. sakazaki): 0.25 mg/L
MICs range (K. ozonae): >32 mg/L
MICs range (E. aerogenes; E. aerogenes KPC-2, n=1): 8 mg/L
MICs range (E. aerogenes; Plasmid mediated AmpC or chromosomal AmpC + decreased membrane permeability, E. aerogenes Overexpressed cephalosporinase, n=1): 1 mg/L
MICs range (P. mirabilis [3]): 0.25 mg/L
MICs range (S. marcescens; S. marcescens IMP-11, n=1): 8 mg/L
MICs range (S. marcescens; S. marcescens KPC-2, n=2): >32 mg/L
MICs range (S. marcescens; S. marcescens SME-1, n=1): 32 mg/L
MICs range (S. marcescens; S. marcescens SME-2, n=1): 32 mg/L
MICs range (S. marcescens; S. marcescens VIM-2, n=1): >32 mg/L
MICs range (E. coli; E. coli IMP-1, n=2): 0.5 mg/L
MICs range (E. coli; E. coli IMP-8, n=1): 6 mg/L
MICs range (E. coli; E. coli KPC-2, n=5): 0.5 to 4 mg/L
MICs range (E. coli; E. coli NDM-1, n=7): 1 to 16 mg/L
MICs range (E. coli; E. coli OXA-48, n=6): 0.38 to 3 mg/L
MICs range (E. coli; E. coli VIM-1, n=2): 1.5 to 3 mg/L
MICs range (E. coli; E. coli VIM-2, n=2): 2 to 4 mg/L
MICs range (E. coli; E. coli VIM-19, n=1): 8 mg/L
MICs range (E. coli; ESBLs, E. coli CTX-M-1, n=1): 0.12 mg/L
MICs range (E. coli; ESBLs, E. coli CTX-M-3, n=1): 0.12 mg/L
MICs range (E. coli; ESBLs, E. coli CTX-M-14, n=2): 0.12 mg/L
MICs range (E. coli; ESBLs, E. coli CTX-M-15, n=2): 0.12 mg/L
MICs range (E. coli; ESBLs, E. coli VEB-1, n=1): 0.12 to 0.25 mg/L
MICs range (E. coli; Plasmid mediated AmpC or chromosomal AmpC + decreased membrane permeability, E. coli ACC-1, n=1): 0.12 mg/L
MICs range (E. coli; Plasmid mediated AmpC or chromosomal AmpC + decreased membrane permeability, E. coli CMY-2, n=1): 0.12 mg/L
MICs range (E. coli; Plasmid mediated AmpC or chromosomal AmpC + decreased membrane permeability, E. coli CMY-10, n=1): 0.12 mg/L
MICs range (E. coli; Plasmid mediated AmpC or chromosomal AmpC + decreased membrane permeability, E. coli DHA-1, n=1): 0.12 mg/L
MICs range (E. coli; Plasmid mediated AmpC or chromosomal AmpC + decreased membrane permeability, E. coli Extended spectrum cephalosporinase, n=1): 0.12 mg/L
MICs range (E. coli; Plasmid mediated AmpC or chromosomal AmpC + decreased membrane permeability, E. coli Overexpressed cephalosporinase, n=1): 16 mg/L
MIC (P. rettgeri [4]): 1 µg/mL
MIC (K. pneumoniae [5]; CIP53153, K. pneumoniae CIP53153 (30), wild-type): 0.19 µg/mL (≈ 0.635 µM)
MIC (K. pneumoniae [5]; K. pneumoniae 1 OMA (11), NDM-1 + CTX-M-15 + OXA-1 + OXA-9): > 32 µg/mL
MIC (K. pneumoniae [5]; K. pneumoniae 2 OMA, NDM-1 + OXA-1): > 32 µg/mL
MIC (K. pneumoniae [5]; K. pneumoniae 7 AFR, NDM-1 + OXA-1 + CTX-M-15 + CMY-6 + TEM-1): > 32 µg/mL
MIC (K. pneumoniae [5]; K. pneumoniae 6299 (19), ESBL OXA-163): 0.19 µg/mL (≈ 0.635 µM)
MIC (K. pneumoniae [5]; K. pneumoniae 6759 GEN, NDM-1 + CTX-M-15 + OXA-1 + OXA-9 + OXA-10 + CMY16): 6 µg/mL
MIC (K. pneumoniae [5]; K. pneumoniae (16), ESBL CTX-M-15): 0.19 µg/mL (≈ 0.635 µM)
MIC (K. pneumoniae [5]; K. pneumoniae BEL, OXA-48): 1 µg/mL (≈ 3.34 µM)
MIC (K. pneumoniae [5]; K. pneumoniae BER (28), porin deficiency associated with ESBL, TEM): 0.5 µg/mL (≈ 1.67 µM)
MIC (K. pneumoniae [5]; K. pneumoniae BIC (4), OXA-48): 0.5 µg/mL (≈ 1.67 µM)
MIC (K. pneumoniae [5]; K. pneumoniae CHA (5), OXA-48 + TEM-1): 0.5 µg/mL
MIC (K. pneumoniae [5]; K. pneumoniae COO (27), porin deficiency associated with ESBL, CTX-M-15 + SHV-28): 0.5 µg/mL
MIC (K. pneumoniae [5]; K. pneumoniae DIN, NDM-1): 8 µg/mL (≈ 26.7 µM)
MIC (K. pneumoniae [5]; K. pneumoniae EGY, OXA-48 + CTX-M-15): 2 µg/mL
MIC (K. pneumoniae [5]; K. pneumoniae H1516-6 COL (3), KPC-2 + TEM-1 + CTXM-15): 2 µg/mL
MIC (K. pneumoniae [5]; K. pneumoniae HOL, OXA-181 + CTX-M-15): 0.5 µg/mL
MIC (K. pneumoniae [5]; K. pneumoniae IND, NDM-1 + OXA-1 + CTX-M-15): 6 µg/mL
MIC (K. pneumoniae [5]; K. pneumoniae MAD (15), IMP-13): 0.5 µg/mL (≈ 1.67 µM)
MIC (K. pneumoniae [5]; K. pneumoniae MAD, VIM-1 + CTX-M-3): > 32 µg/mL
MIC (K. pneumoniae [5]; K. pneumoniae OMA (8), OXA-181 + CTXM-15 + OXA-1): 0.5 µg/mL
MIC (K. pneumoniae [5]; K. pneumoniae RAM, OXA-48): 1 µg/mL (≈ 3.34 µM)
MIC (K. pneumoniae [5]; K. pneumoniae SAB, NDM-1): 2 µg/mL (≈ 6.68 µM)
MIC (K. pneumoniae [5]; K. pneumoniae UK (10), NDM-1 + CTX-M-15 + CMY-4 + OXA-1): 8 µg/mL
MIC (P. stuartii): > 32 µg/mL
MIC (P. mirabilis [6]): 0.19 µg/mL (≈ 0.635 µM)
MIC (E. cloacae [7]; E. cloacae 2185, ESBL OXA-163): 0.19 µg/mL (≈ 0.635 µM)
MIC (E. cloacae [7]; E. cloacae (1), KPC-2): 4 µg/mL (≈ 13.4 µM)
MIC (E. cloacae [7]; E. cloacae (17), ESBL CTX-M-15): 0.19 µg/mL (≈ 0.635 µM)
MIC (E. cloacae [7]; E. cloacae ARF (25), overexpression of chromosomal cephalosporinase AmpC): 0.38 µg/mL (≈ 1.27 µM)
MIC (E. cloacae [7]; E. cloacae BLA, overexpression of chromosomal cephalosporinase AmpC): 0.38 µg/mL (≈ 1.27 µM)
MIC (E. cloacae [7]; E. cloacae CON (26), overexpression of chromosomal cephalosporinase AmpC): 0.5 µg/mL (≈ 1.67 µM)
MIC (E. cloacae [7]; E. cloacae IR38, NDM-1 + CTX-M-15): > 32 µg/mL
MIC (E. cloacae [7]; E. cloacae TUR (6), OXA-48 + SHV-5): 0.5 µg/mL
MIC (E. cloacae [7]; E. cloacae, ESBL VEB-1): 0.19 µg/mL (≈ 0.635 µM)
MIC (C. freundii [8]): > 32 µg/mL
MICs range (M. morganii): 1.5 to 2^ mg/L
MICs range (E. asburiae): >32 mg/L
MICs range (E. cloacae [9]; E. cloacae GES-5, n=1): >32 mg/L
MICs range (E. cloacae [9]; E. cloacae IMP-8, n=2): 0.75 to 1.5 mg/L
MICs range (E. cloacae [9]; E. cloacae KPC-2, n=7): 1 to 24 mg/L
MICs range (E. cloacae [9]; E. cloacae NDM-1, n=1): 2 mg/L
MICs range (E. cloacae [9]; E. cloacae NMC-A, n=1): 16 mg/L
MICs range (E. cloacae [9]; E. cloacae OXA-48, n=3): 0.5 to 1 mg/L
MICs range (E. cloacae [9]; ESBLs, E. cloacae CTX-M-15, n=3): 0.12 mg/L
MICs range (E. cloacae [9]; ESBLs, E. cloacae VEB-1, n=1): 0.12 mg/L
MICs range (E. cloacae [9]; Plasmid mediated AmpC or chromosomal AmpC + decreased membrane permeability, E. cloacae Overexpressed cephalosporinase, n=7): 0.12 to 16^ mg/L
MICs range (K. pneumoniae [10]; ESBL + decreased membrane permeability, K. pneumoniae CTX-M-15, n=8): 0.25 to 8 mg/L
MICs range (K. pneumoniae [10]; ESBL + decreased membrane permeability, K. pneumoniae SHV-2a, n=1): 0.25 mg/L
MICs range (K. pneumoniae [10]; ESBL + decreased membrane permeability, K. pneumoniae SHV-28, n=1): 1 mg/L
MICs range (K. pneumoniae [10]; ESBLs, K. pneumoniae CTX-M-3, n=1): 0.12 mg/L
MICs range (K. pneumoniae [10]; ESBLs, K. pneumoniae CTX-M-14, n=1): 0.12 mg/L
MICs range (K. pneumoniae [10]; ESBLs, K. pneumoniae CTX-M-15, n=3): 0.12 mg/L
MICs range (K. pneumoniae [10]; K. pneumoniae IMP-1, n=5): 0.5 to 8 mg/L
MICs range (K. pneumoniae [10]; K. pneumoniae IMP-8, n=2): 0.5 to 1 mg/L
MICs range (K. pneumoniae [10]; K. pneumoniae KPC-3, n=3): 0.5 to 8 mg/L
MICs range (K. pneumoniae [10]; K. pneumoniae NDM-4, n=1): >32 mg/L
MICs range (K. pneumoniae [10]; K. pneumoniae OXA-181, n=2): 0.5 to 1 mg/L
MICs range (K. pneumoniae [10]; K. pneumoniae VIM-19, n=1): 8 mg/L
MICs range (K. pneumoniae [10]; Plasmid mediated AmpC or chromosomal AmpC + decreased membrane permeability, K. pneumoniae DHA-1, n=1): >32 mg/L
MICs range (K. pneumoniae [10]; Plasmid mediated AmpC or chromosomal AmpC + decreased membrane permeability, K. pneumoniae DHA-2, n=1): 0.12 mg/L
